Measured values as given in ChEMBL document CHEMBL5653615 (J Biol Chem, 2013).

Legend:
[1] = target: RAF proto-oncogene serine/threonine-protein kinase (Homo sapiens) (UniProt P04049); assay: Inhibition of human RAF1 at 18.6 nM by HotSpot assay relative to control
[2] = target: T1, Serine/threonine-protein kinase Sgk1 (Homo sapiens) (UniProt O00141); assay: Inhibition of human SGK1 at 18.6 nM by HotSpot assay relative to control
T1 sequence (whole entry): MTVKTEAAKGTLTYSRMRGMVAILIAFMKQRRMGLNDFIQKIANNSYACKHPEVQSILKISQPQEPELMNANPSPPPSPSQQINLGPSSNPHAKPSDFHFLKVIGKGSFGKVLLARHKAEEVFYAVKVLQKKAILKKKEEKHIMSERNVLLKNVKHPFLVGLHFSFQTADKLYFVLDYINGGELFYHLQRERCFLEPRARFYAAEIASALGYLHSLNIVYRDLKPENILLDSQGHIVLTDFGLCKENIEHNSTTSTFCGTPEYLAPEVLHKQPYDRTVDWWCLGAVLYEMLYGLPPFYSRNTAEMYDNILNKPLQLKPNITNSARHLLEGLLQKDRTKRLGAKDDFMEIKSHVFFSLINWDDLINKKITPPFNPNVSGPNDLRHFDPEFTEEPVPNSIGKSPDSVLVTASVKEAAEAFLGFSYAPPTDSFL

[3] = target: T2, Ephrin type-A receptor 3 (Homo sapiens) (UniProt P29320); assay: Inhibition of human EPHA3 at 1.82 nM by HotSpot assay relative to control
T2 sequence (whole entry): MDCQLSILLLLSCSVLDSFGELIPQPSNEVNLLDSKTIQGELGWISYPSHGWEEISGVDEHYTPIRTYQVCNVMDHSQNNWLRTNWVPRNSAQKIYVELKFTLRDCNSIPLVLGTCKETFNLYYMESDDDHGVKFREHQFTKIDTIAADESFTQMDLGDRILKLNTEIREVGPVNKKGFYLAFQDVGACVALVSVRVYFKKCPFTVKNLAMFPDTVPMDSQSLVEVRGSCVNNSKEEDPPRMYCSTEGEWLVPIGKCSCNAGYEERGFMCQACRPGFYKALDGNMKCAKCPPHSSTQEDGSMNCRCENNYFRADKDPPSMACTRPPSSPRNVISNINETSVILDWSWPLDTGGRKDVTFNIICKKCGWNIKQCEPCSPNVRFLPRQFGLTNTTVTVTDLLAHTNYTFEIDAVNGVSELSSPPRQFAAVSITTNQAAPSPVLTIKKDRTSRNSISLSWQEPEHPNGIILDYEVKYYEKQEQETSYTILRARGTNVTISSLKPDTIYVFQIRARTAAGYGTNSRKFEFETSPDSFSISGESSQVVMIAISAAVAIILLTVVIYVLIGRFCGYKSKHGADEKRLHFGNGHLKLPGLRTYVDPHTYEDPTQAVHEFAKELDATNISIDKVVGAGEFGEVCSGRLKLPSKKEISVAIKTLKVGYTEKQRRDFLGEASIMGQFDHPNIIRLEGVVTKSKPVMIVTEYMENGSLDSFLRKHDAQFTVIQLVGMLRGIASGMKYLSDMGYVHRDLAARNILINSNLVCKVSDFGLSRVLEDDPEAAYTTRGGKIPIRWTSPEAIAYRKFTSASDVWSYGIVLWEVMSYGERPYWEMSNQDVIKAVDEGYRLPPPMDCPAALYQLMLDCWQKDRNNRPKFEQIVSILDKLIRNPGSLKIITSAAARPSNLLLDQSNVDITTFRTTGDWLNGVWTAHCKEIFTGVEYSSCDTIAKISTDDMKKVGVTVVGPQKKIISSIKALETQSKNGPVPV

[4] = target: T3, G protein-coupled receptor kinase 3 (Homo sapiens) (UniProt P35626); assay: Inhibition of human GRK3 at 1.82 nM by HotSpot assay relative to control
T3 sequence (whole entry): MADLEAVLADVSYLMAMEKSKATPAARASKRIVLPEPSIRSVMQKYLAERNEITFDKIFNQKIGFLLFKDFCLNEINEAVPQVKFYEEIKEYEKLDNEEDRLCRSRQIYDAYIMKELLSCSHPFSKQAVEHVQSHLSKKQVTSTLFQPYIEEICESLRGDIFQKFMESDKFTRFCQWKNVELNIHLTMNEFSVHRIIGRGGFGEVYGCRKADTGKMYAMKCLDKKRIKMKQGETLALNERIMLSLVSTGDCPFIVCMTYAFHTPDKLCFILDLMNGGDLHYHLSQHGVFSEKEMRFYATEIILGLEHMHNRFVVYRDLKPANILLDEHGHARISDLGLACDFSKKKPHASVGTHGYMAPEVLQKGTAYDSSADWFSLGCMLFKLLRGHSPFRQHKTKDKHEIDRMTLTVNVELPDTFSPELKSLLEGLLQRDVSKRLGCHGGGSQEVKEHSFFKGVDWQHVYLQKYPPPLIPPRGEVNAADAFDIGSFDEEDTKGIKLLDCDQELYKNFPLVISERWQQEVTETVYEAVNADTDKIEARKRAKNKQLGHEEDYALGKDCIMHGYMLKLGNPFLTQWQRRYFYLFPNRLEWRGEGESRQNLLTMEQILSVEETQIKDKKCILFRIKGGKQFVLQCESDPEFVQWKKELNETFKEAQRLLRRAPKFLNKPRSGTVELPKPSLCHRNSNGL

[5] = target: G protein-coupled receptor kinase 6 (Homo sapiens) (UniProt P43250); assay: Inhibition of human GRK6 at 1.82 nM by HotSpot assay relative to control
[6] = target: T4, Protein kinase C epsilon type (Homo sapiens) (UniProt Q02156); assay: Inhibition of human PKCepsilon at 1.82 nM by HotSpot assay relative to control
T4 sequence (whole entry): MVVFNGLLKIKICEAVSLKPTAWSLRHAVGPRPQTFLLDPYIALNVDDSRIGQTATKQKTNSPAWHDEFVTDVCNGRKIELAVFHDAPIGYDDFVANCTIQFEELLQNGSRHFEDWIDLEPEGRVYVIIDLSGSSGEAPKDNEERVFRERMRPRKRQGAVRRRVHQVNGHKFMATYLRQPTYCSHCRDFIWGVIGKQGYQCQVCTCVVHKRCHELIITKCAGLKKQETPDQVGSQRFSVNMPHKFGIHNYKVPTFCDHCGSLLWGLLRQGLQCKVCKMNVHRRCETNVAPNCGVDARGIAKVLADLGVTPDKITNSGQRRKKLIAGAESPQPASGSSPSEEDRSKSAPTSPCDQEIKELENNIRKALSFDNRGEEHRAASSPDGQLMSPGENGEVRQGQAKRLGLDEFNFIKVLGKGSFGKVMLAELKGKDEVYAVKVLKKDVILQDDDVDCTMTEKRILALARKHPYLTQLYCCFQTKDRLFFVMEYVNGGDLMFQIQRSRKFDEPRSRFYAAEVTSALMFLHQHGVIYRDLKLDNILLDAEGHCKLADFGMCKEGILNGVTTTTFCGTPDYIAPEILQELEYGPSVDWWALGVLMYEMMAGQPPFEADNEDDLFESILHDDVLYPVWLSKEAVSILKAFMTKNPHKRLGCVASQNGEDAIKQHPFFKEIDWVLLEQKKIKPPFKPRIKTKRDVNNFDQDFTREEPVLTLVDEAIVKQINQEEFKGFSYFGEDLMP

Sequence of G protein-coupled receptor kinase 6 (Homo sapiens) (P43250 whole entry, looked up): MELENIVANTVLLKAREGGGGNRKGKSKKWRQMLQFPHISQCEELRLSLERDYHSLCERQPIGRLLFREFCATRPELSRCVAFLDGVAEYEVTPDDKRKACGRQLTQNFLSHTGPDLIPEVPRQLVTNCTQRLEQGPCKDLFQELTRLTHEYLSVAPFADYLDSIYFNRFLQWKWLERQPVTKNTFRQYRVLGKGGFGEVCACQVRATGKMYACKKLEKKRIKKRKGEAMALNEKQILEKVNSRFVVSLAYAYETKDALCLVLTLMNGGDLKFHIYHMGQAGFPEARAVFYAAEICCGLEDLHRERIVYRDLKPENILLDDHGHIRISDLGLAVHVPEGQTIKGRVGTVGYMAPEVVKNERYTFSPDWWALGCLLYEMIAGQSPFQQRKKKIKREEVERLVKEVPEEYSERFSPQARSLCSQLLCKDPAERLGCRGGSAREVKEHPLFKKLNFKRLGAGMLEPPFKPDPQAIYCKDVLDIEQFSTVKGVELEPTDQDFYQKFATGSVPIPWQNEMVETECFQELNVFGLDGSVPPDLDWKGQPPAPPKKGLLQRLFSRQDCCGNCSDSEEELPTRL
Sequence of RAF proto-oncogene serine/threonine-protein kinase (Homo sapiens) (P04049 whole entry): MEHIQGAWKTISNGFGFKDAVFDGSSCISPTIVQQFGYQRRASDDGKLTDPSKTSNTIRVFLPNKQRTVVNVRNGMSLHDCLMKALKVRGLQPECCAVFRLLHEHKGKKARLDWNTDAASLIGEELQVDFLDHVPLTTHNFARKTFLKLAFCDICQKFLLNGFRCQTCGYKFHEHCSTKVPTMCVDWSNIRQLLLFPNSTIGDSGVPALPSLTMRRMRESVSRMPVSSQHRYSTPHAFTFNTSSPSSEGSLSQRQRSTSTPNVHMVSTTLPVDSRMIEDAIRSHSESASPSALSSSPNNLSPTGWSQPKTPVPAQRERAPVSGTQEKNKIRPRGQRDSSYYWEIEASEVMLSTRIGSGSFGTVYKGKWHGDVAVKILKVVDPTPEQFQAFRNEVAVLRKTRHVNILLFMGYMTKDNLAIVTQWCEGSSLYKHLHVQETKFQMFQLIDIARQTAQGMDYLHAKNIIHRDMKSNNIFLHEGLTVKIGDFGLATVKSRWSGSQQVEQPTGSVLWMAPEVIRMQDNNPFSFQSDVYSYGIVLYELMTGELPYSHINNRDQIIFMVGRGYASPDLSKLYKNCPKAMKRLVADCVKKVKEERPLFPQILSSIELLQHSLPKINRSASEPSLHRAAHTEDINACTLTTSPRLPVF

| inhibition [1] | inhibition [2] | inhibition [3] | inhibition [4] | inhibition [5] | inhibition [6] | SMILES |
| --- | --- | --- | --- | --- | --- | --- |
| -5.79% | 3.48% |  |  |  |  | C[C@]1(O)C[C@@H](c2nc(-c3ccc4ccc(-c5ccccc5)nc4c3)c3c(N)nccn32)C1 |
|  |  | 6.1% | -5.67% | 2.92% | -6.93% | C[C@@]1(C(=O)Nc2ccc(F)nc2)CCCN1c1nc(Nc2cc(C3CC3)n[nH]2)c2cccn2n1 |
